Source: the supplement of paper PMC11061612

Key:
[1] = tested on: VCaP (Prostate Carcinoma); experiment: combination Emax (second highest fraction inhibited in the dose matrix, 72 h); higher = more inhibition; extreme values may be limits of the assay
Method in brief: (§1)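 Bliss excess equals the observed combination effect minus the expected value EA + EB − EA·EB, where EA and EB are the effects of each agent alone. Combination Emax is the second-highest inhibition within the matrix. Inhibition was scaled from CellTiter-Glo 2.0 luminescence, with 0 set by vehicle wells and 1 by blank wells, after 72 hours of two-drug dosing of cells plated in 1536-well plates.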

[2] = tested on: TT (Thyroid Gland Carcinoma); experiment: as above
Method in brief: as §1

CS(=O)(=O)CCNCc1ccc(-c2ccc3ncnc(Nc4ccc(OCc5cccc(F)c5)c(Cl)c4)c3c2)o1 [Lapatinib] + NC1(c2ccc(-c3nc4ccn5c(=O)[nH]nc5c4cc3-c3ccccc3)cc2)CCC1 [MK-2206] (first compound max 10 µM, 7x7, partner max 10 µM)
combination Emax [1]: 0.478
combination Emax [2]: 0.625
